According to publication PMC8390552, “Helix 12 stabilization contributes to basal transcriptional activity of PXR” (The Journal of Biological Chemistry, 2021):
Substitutions are numbered along the chain they refer to.

How the values were obtained:
[1] = target: T1, WT PXR (Homo sapiens, UniProt O75469); assay: Reporter gene assay (p3A4-pGL3, CYP3A4 promoter) in COS-1 cells expressing WT PXR; settings: 1 μM ligand, without PGC1α (Fig. S7)
T1 sequence (O75469 1-434): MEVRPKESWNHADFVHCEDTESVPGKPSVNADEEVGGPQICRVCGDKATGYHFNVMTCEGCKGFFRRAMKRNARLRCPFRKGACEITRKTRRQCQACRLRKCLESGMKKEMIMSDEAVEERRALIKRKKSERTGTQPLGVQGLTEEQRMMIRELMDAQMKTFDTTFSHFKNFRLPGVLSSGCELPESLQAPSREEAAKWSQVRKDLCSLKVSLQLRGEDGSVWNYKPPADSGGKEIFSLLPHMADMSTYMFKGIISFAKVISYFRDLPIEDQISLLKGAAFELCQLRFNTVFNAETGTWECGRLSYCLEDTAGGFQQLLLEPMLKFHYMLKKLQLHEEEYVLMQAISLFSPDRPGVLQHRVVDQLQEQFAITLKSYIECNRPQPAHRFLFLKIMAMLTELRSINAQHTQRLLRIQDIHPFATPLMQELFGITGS
Protocol: (§1) COS-1 cells were cultured in Dulbecco's Modified Eagle medium (DMEM, Fujifilm Wako Pure Chemical) supplemented with 10% fetal bovine serum (FBS, GE Healthcare), MEM nonessential amino acids, and antibiotic-antimycotic (Thermo Fisher Scientific). Twenty-four hours after seeding, the culture medium was replaced with prewarmed DMEM without FBS, and plasmids were transfected with Lipofectamine 3000 (Thermo Fisher Scientific) according to the manufacturer’s instructions.
(§2) Firefly luciferase luminescence was normalized to Renilla luciferase luminescence.

[2] = target: T2, PXR-F420A (Homo sapiens, UniProt O75469, F420A); assay: Reporter gene assay (p3A4-pGL3, CYP3A4 promoter) in COS-1 cells expressing PXR-F420A; settings: 1 μM ligand, without PGC1α (Fig. S7)
T2 sequence (O75469 1-434 F420A): T1 sequence (O75469 1-434) with F420A
Protocol: as §1, §2

Clc1ccccc1C(c1ccccc1)(c1ccccc1)n1ccnc1 [clotrimazole, Clotrimazole]
Induction of reporter activity, WT PXR [1]: weak induction | Induction of reporter activity, PXR-F420A [2]: but not for PXR-F420A
